Key:
CYP2D6 [1] = molecular target: T1, CYP2D6 (Homo sapiens, UniProt P10635); assay: Screening test of the rate of CYP2D6 contribution in human liver microsomal metabolism; assay type: in vitro ADME; design: key to Rate of CYP2D6 Contribution indeterminable due to high stability for human microsomal metabolism: —*^): The rate of CYP2D6 contribution was indeterminable in the present test due to high stability for human microsomal metabolism; conditions: 1 mg/mL human liver microsomes, 1 μM test substance, 37° C.
T1 construct: Pooled of Human Liver Microsomes was purchased from Xenotech, LLC; tissue Xenotech, LLC; host or cells: pooled human liver microsomes
T1 sequence (P10635 whole entry): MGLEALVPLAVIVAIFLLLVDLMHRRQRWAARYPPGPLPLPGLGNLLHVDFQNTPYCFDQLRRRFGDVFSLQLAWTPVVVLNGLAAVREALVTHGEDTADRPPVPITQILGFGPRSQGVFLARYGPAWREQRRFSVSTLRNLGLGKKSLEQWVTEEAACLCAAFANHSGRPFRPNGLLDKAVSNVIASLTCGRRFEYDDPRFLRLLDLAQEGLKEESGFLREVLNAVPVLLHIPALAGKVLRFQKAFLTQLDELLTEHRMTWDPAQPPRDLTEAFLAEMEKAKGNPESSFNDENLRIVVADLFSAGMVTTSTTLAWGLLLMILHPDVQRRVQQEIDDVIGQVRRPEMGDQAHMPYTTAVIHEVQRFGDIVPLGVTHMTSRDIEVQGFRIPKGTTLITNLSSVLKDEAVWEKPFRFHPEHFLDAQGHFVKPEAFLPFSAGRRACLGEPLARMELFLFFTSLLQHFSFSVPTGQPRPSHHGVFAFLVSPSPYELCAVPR
Method: Screening Test of the Rate of CYP2D6 Contribution in Human Liver Microsomal Metabolism
0.2 mL of a 50 mM potassium phosphate buffer solution (pH 7.4) containing NADPH (final concentration: 3 mM, manufactured by Oriental Yeast Co., Ltd.), 1 mg/mL human liver microsomes (manufactured by XENOTECH, LLC), and a 1 μM test substance was heated on a water bath at 37° C. for metabolic reaction. After the reaction for 15 minutes or 30 minutes, methanol was added in a volume 3 times that of the reaction solution, and the mixture was stirred to terminate the reaction. This reaction solution was centrifuged for protein precipitation. Then, the supernatant was collected and subjected to LC-MS/MS analysis. The results were analyzed as follows:
The test substance was quantified, and time-dependent change in the amount of the substance remaining was logarithmically plotted. A metabolic rate was calculated from the slope.
The ratio of the metabolic rate obtained by the addition of quinidine (final concentration: 4 μM) to the reaction solution to the metabolic rate obtained without the addition was used as the rate of contribution of enzymes other than CYP2D6, and the rate of contribution obtained by subtracting this rate of contribution of other enzymes from the total was used as the rate of CYP2D6 contribution. Specifically, it was calculated according to the equation: Rate of contribution(%)={1−(metabolic rate [with quinidine]/metabolic rate[without quinidine])}×100. A smaller value of the rate of CYP2D6 contribution means smaller CYP2D6 contribution.

[2] = molecular target: T2, human serotonin transporter (h-SERT) (Homo sapiens, UniProt P31645); assay: Screening test using [3H]citalopram binding for evaluating human serotonin reuptake inhibitory effect; conditions: h-SERT/CHO membrane preparation, [3H]citalopram approximately 2 nM, room temperature 60 minutes; read-out: Test Example 1: h-SERT binding inhibition constant (Ki)
T2 construct: expressed in transfected cells; host or cells: CHO cells (h-SERT/CHO), Geneticin-selected
T2 sequence (P31645 whole entry): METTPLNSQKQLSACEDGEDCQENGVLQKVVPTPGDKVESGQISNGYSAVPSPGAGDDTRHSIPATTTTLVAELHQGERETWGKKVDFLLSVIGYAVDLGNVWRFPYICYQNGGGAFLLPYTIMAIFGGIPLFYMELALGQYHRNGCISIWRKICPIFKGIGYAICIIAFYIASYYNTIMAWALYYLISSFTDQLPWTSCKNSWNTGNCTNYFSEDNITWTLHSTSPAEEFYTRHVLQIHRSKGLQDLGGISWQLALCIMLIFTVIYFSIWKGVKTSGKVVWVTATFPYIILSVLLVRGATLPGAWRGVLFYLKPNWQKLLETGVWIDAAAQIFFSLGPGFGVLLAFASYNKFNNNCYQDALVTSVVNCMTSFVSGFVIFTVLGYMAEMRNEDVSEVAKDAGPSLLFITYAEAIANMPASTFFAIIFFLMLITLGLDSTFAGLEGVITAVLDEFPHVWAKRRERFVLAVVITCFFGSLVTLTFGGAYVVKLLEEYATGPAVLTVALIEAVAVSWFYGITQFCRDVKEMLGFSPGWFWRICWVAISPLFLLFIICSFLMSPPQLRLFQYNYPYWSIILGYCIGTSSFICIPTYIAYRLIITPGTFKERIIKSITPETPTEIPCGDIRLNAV
Description: CHO cells containing a human serotonin transporter (h-SERT) expressed therein (h-SERT/CHO) were used in the experiment.
1-2 Receptor Binding Experiment
A smaller value of the h-SERT binding inhibition constant Ki means a higher human serotonin reuptake inhibitory effect.

CYP2D6 [3] = molecular target: T1, CYP2D6; assay: CYP2D6 inhibition screening test; assay type: in vitro ADME; conditions: pooled human liver microsomes, substrate bufuralol, 37° C. 10 min, 1'-hydroxybufuralol by LC-MSMS; read-out: Test Example 3: CYP2D6 Inhibition IC50
Method: CYP2D6 Inhibition Screening Test
Bufuralol was purchased from Sigma-Aldrich Corp., and Pooled of Human Liver Microsomes was purchased from Xenotech, LLC.
150 μL of Pooled Human Liver Microsomes (20 mg/ml), 12 mL of a 0.5 M potassium phosphate buffer, 1.2 mL of a 165 mM magnesium chloride solution, and 34.65 mL of distilled water were mixed.
Bufuralol was dissolved at a concentration of 2.0 mM in DMSO and then diluted 200-fold with distilled water.
3-3 Experimental Procedures
1. A 10 mM DMSO solution of a test drug was serially diluted 5-fold with DMSO for 4 serial dilutions to prepare 10, 2, 0.4, and 0.08 mM DMSO solutions.
2. Each test drug solution of the step 1. and DMSO were separately diluted 96-fold with a human liver microsome solution, and each dilution was dispensed and 80 μL of each dilution to microplates.
3. 10 μL of a substrate solution and 10 μL of a β-NADPH solution were added to the well of the step 2., followed by incubation at 37° C. for 10 min.
4. The reaction was terminated by the addition of 300 μL of methanol.
5. The reaction mixture was filtered, and LC-MSMS analysis was conducted.
3-4 Quantification and Calculation
The amount of 1′-hydroxybufuralol produced was quantified by LC-MSMS, and this amount was used as a metabolic activity of CYP2D6 for each well. The remaining activity of each sample was determined by comparison with the activity obtained from DMSO as a test drug. An IC50 value of CYP2D6 inhibition was determined from the test drug concentration and remaining activity. The IC50 value was calculated by linear interpolation between two points that span the remaining activity 50%. A larger value of IC50 of CYP2D6 inhibition means weaker CYP2D6 inhibition.

[4] = molecular target: T3, human serotonin 1A receptor (h-5-HT1A) (Homo sapiens, UniProt P08908)
T3 sequence (P08908 1-422): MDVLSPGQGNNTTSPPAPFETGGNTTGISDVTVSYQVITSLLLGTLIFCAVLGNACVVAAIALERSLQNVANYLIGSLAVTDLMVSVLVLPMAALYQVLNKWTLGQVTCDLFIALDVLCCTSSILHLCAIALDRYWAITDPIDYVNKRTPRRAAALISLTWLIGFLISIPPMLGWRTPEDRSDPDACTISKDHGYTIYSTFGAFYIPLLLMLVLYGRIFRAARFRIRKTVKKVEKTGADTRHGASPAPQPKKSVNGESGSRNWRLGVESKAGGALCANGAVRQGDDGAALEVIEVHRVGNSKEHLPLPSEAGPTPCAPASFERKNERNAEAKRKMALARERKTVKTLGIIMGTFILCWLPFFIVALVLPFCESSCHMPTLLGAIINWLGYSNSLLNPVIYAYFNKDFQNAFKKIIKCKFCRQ
Method: The cells were cultured in F12 containing 10% FCS, 500 μg/ml Geneticin, and 100 U/ml penicillin-100 μg/ml streptomycin (all manufactured by Sigma-Aldrich Corp.) in a 5% CO2 incubator. […] Specifically, the cells were dissociated/collected using 50 mM Tris-HCl (pH=7.4). The resulting cells were homogenized using a Teflon (registered trademark) homogenizer and then centrifuged (48,000×g, 20 min, 4° C.). The pellet was resuspended in an appropriate amount of 50 mM Tris-HCl (pH=7.4) and stored at −80° C. until use. The amount of the protein in the membrane preparation was quantified using Dye Reagent Concentrate (manufactured by Bio-Rad Laboratories, Inc.) with bovine serum albumin (manufactured by Sigma-Aldrich Corp.) as a standard.
The reaction solution was reacted at room temperature for 30 minutes and then rapidly filtered by suction at a low pressure through glass fiber filter paper. The glass fiber filter paper was washed twice with 250 μl of 50 mM Tris-HCl (pH=7.4) and then added to a counting vial containing 4 ml of ACS-II (manufactured by Amersham Biosciences). Receptor binding radioactivity remaining on the filter paper was measured using a liquid scintillation counter.

[5] = molecular target: T2, human serotonin transporter (h-SERT); assay: Serotonin transporter function inhibition test using [3H]5-HT; assay type: cell-based; conditions: h-SERT/CHO cells, [3H]5-HT uptake approximately 10 nM, 37° C. 10 minutes; read-out: Test Example 5: h-SERT Function Inhibition Constant (Ki)
Method: 1-1 Cells Used and Preparation of Cell Suspension
CHO cells containing a human serotonin transporter (h-SERT) expressed therein (h-SERT/CHO) were used in the experiment. […] The collected cells were suspended in a buffer solution containing 0.1 mM CaCl2 and 1 mM MgCl2 in PBS (hereinafter, referred to as PBSCM) and stored in ice until use.
Specifically, 149 μl of the cell suspension (10×10^4 cells/well) and 1 μl of a solution of a test drug dissolved in dimethyl sulfoxide were preincubated at 37° C. for 10 minutes.

- Rate of CYP2D6 Contribution indeterminable due to high stability for human microsomal metabolism (CYP2D6 [1]): —*^)
- Ki [2]: 0.0074 µM
- IC50 (CYP2D6 [3]): 26.9 µM
- Ki [4]: 0.0086 µM
- Ki [5]: 0.051 µM
SMILES: O=C1CCOc2ccc(CCN3CCC(Cc4ccc(Br)c(OCCO)c4)CC3)cc21 [Example 13, 6-(2-{4-[4-Bromo-3-(2-hydroxyethoxy)benzyl]piperidin-1-yl}ethyl)-2,3-dihydro-4H-chromen-4-one]

From US8557998B2, “Benzylpiperizine compound” (Dainippon Sumitomo Pharma Co., Ltd, priority 2008, dated 2013)
